Experiments:
[1] = tested on: BSA; test: Screen of additives for prevention of aggregation (Table 5); type: physicochemical, bovine; conditions: 12.5 mg/mL BSA, 70°C, four columns in printed order, heads missing
[2] = tested on: T1, porcine trypsin; test: Insulin digestion by trypsin in solution, buffer screening (Table 9); type: biochemical; conditions: for Digested / Peptide / Undigested: 37°C, 18 h
T1 construct: purchased

[3] = tested on: trypsin; test: Insulin digestion in immobilized enzyme reactor, buffer screening (Table 7); type: biochemical, porcine; conditions: IMER, 70°C, 60 s
[4] = Aggregation of BSA in IMER, ammonium acetate, 5mM CaCl2, 0.1% octylglucoside (Table 33); type: physicochemical; conditions: 0.1% in 50mM ammonium acetate, 5mM CaCl2, 70°C
[5] = Plasma digestion with buffer/additive combinations, aggregation; type: physicochemical, beagle; conditions: 100mM CaCl2, 90 minutes
[6] = Aggregate formation on digestion at high protein loads; type: physicochemical, monkey; conditions: 10% final concentration with 500 mM CaCl2
[7] = Aggregation of BSA in IMER, ammonium acetate, 5mM CaCl2, 5% glycerol (Table 34); type: physicochemical; conditions: 5% and 10% (Tables 34 and 35), 50mM ammonium acetate, 5mM CaCl2, 70°C

With `CCCCCCCCO[C@@H]1O[C@H](CO)[C@@H](O)[C@H](O)[C@H]1O` [OGS, octylglucoside] the aggregation ([1]; additive concentration not given) was “Ν”, the Digested ([2]; 0.05%) was 1424601 and the Peptide ([2]; 0.05%) was 581489. For the same compound, the Undigested ([2]; 0.05%) was 3798587, the Digested ([2]; 0.1%) was 1616907 and the Peptide ([2]; 0.1%) was 675287. The Undigested ([2]; 0.1%) was 4128179, the Digested ([2]; 0.15%) was 1538290 and the Peptide ([2]; 0.15%) was 636117. It also gave an Undigested ([2]; 0.15%) of 3751677, a Digested ([2]; 0.2%) of 1574071 and a Peptide ([2]; 0.2%) of 619589. The Undigested ([2]; 0.2%) was 3732438, the Digested ([3]; 0.05%) was 2394275 and the Peptide ([3]; 0.05%) was 958775. It also gave an Undigested ([3]; 0.05%) of 1730676, a Digested ([3]; 0.1%) of 2255277 and a Peptide ([3]; 0.1%) of 891922. The Undigested ([3]; 0.1%) was 2114234, the Digested ([3]; 0.15%) was 2430665 and the Peptide ([3]; 0.15%) was 942341. For the same compound, the Undigested ([3]; 0.15%) was 2160281, the Digested ([3]; 0.2%) was 2255277 and the Peptide ([3]; 0.2%) was 891922. For the same compound, the Undigested ([3]; 0.2%) was 2114234, the “sample solubility and aggregation” value [4] was “enhances sample solubility and prevents aggregation” and the aggregation ([5]; 0.1% in 50mM TBS) was “significant aggregation”.
In the case of `OCC(O)CO` [Glycerol], the aggregation ([1]; 5%) is reported as “Ν”, the aggregation ([1]; 10%) is reported as “Ν” and the Digested ([2]; 5%) is reported as 1007768. It also gave a Peptide ([2]; 5%) of 432166, an Undigested ([2]; 5%) of 3685707 and a Digested ([2]; 10%) of 833521. The Peptide ([2]; 10%) was 353626, the Undigested ([2]; 10%) was 4404492 and the Digested ([2]; 20%) was 654553. For the same compound, the Peptide ([2]; 20%) was 275165, the Undigested ([2]; 20%) was 5163829 and the digestion efficiency ([2]; lower to moderate concentrations) was “does not significantly, negatively impact digestion efficiency”. The formation of aggregates [6] was “prevented the formation of aggregates”, the Digested ([3]; 5%) was 2051870 and the Peptide ([3]; 5%) was 828171. For the same compound, the Undigested ([3]; 5%) was 2217803, the Digested ([3]; 10%) was 1779261 and the Peptide ([3]; 10%) was 697488. The Undigested ([3]; 10%) was 2432362, the Digested ([3]; 20%) was 1167862 and the Peptide ([3]; 20%) was 445736. For the same compound, the Undigested ([3]; 20%) was 3174668, the aggregation ([5]; 10% in 50mM TBS) was “no aggregation” and the “sample solubility and aggregation” value [7] was “enhances sample solubility and prevents aggregation”.
